In patent publication US10159254B2, “Weed control methods” (Syngenta Participations AG, priority 2013, dated 2018):

What was measured:
SYHT0H2 soybeans [1] = assay: Greenhouse: water-soluble iron compounds safening mesotrione, maximum injury; conditions: in vivo
Experimental: An experiment is conducted to look at the safening effect of a variety of water-soluble iron-containing compounds. SYHT0H2 soybean plants are grown in small pots filled with a greenhouse potting mix. […] In all cases, mesotrione was applied at 420 g ai/ha and all treatments contained liquid ammonium sulphate at 2.5% v/v and NIS at 0.25% v/v. The application rates of iron-containing compounds indicated are iron equivalent rates. […] Percent injury levels were assessed 6, 9, and 16 days after treatment. Data presented are maximum injury occurring from any of the treatments at any time during the experiment.

SYHT0H2 soybeans [2] = assay: Greenhouse: Sequestrene 138Fe rate series, percent injury from HPPD-inhibitors at 7 DAT; type: in vivo, soybean; conditions: mesotrione 420, bicyclopyrone 200, tembotrione 368, topramezone 72 g/ha
Experimental: Effect of Sequestrene® 138Fe on Percent Injury from Various HPPD-inhibitors on SYHT0H2 Soybeans. Injury Assessed at Seven Days after Treatment (7 DAT)
SYHT0H2 soybeans are grown in 4×4-inch pots filled with a greenhouse potting mix. When the plants reach the V2-V3 growth stage, they are treated with an HPPD inhibitor applied alone or in a tank mixture with Sequestrene 138Fe at various rates ranging from 140 g product/ha (equivalent to 8.4 g iron/ha) to 2240 g product/ha (equivalent to 134 g iron/ha).

SYHT0H2 soybeans [3] = assay: Greenhouse: tank-mix and sequential Sequestrene 138Fe, HPPD-inhibitor maximum injury; type: in vivo, soybean
Experimental: Effect of Tank-mix and Sequential Application of Sequestrene® 138 on Mesotrione (Applied as Callisto®)—Maximum Injury in SYHT0H2 Soybeans
An experiment is conducted in the greenhouse to determine the effect of chelated iron (Sequestrene 138Fe containing 6% iron) on HPPD-inhibitor injury to SYHT0H2 soybeans. Soybeans are grown in pots filled with a greenhouse potting mix. When the plants reach the V2-V3 stage, they are sprayed with an HPPD-inhibitor herbicide applied alone (Treatment 1), or in tank mixture with Sequestrene 138Fe (Treatment 2), or sequentially with Sequestrene 138Fe applied 1 day before the HPPD inhibitor (Treatment 3). Sequestrene 138Fe is applied at 2240 g/ha (equivalent to 134 g iron/ha). All treatments are applied with liquid ammonium sulfate @ 2.5% v/v and a non-ionic surfactant (NIS) @ 0.25% v/v in 150 L/ha water. Observations on percent injury are recorded 5, 11, or 22 days after treatment. Data presented are maximum injury observed during the trial.

[4] = tested on: Velvetleaf (Abutilon theophrasti); assay: Greenhouse weed control: HPPD inhibitors with or without Sequestrene 138Fe, velvetleaf; type: in vivo; conditions: percent velvetleaf control 19 DAT
Experimental: Effect of Tank Mix Applications of HPPD Inhibitors and Sequestrene® 138Fe on Velvetleaf Control. Percent Control Assessed 19 DAT
(§1) A greenhouse experiment is conducted to determine the effect of chelated iron on weed control in the greenhouse. Velvetleaf (Abutilon theophrasti) and common waterhemp (Amaranthus rudis) plants are grown in 4×4-inch pots filled with a greenhouse potting mix. When the plants reached the 2 to 3 inch height (2 to 3 leaf stage), they are sprayed with a reduced rate of an HPPD inhibitor alone or in a tank mix combination with Sequestrene 138Fe at 140 g/ha (equivalent to 8.4 g iron/hectare) or 280 g/ha (equivalent to 16.8 g iron/hectare). […] Observations on percent control are recorded 12, 19, and 25 days after treatment.

[5] = tested on: common waterhemp (Amaranthus rudis); assay: Greenhouse weed control: HPPD inhibitors with or without Sequestrene 138Fe, common waterhemp; type: in vivo; conditions: common waterhemp control 17 DAT
Experimental: as §1
Effect of Tank Mix Applications of Various HPPD Inhibitors and Sequestrene 138Fe on Common Waterhemp Control. Injury Assessed 17 DAT
An experiment is performed to look at the effect of applying iron chelates on control of Common Waterhemp using HPPD-inhibiting herbicides. Experiment design is analogous to that outlined in Experiment 3 above.

[6] = tested on: HPPD-tolerant soybean event SYHT0H2; assay: Glasshouse: post-emergence HPPD herbicide damage with or without Sequestrene 138Fe, 7 DAA; type: in vivo; conditions: isoxaflutole, tembotrione
Experimental: (§2) Safening of Various HPPD-inhibiting Herbicides in HPPD-tolerant Soybean Events SYHT04R and SYHT0H2
(§3) An experiment is performed to determine whether the addition of chelating iron to the spray formulation can mitigate foliar bleaching injury from the HPPD herbicides mesotrione, bicyclopyrone, tembotrione, isoxaflutole, topramezone and pyrasulfatole when applied post-emergence to the HPPD-tolerant soybean events SYHT04R and SYHT0H2.
(§4) Soybean plants are grown in a glasshouse (24° C. day, 18° C. night; 65% relative humidity; 16 hour photoperiod). Two replicates are utilised in respect of SYHT0H2 (growth stage V1-V3) and three replicates are utilised in respect of SYHT04R (growth stage V1 to V3). Spray applications are applied post-emergence at […]. Herbicide damage was assessed 7 DAA (Days After Application).

[7] = tested on: HPPD-tolerant soybean event SYHT04R; assay: as above; type: in vivo; conditions: isoxaflutole, tembotrione
Experimental: as §2, §3, §4

SYHT04R soybeans = assay: Greenhouse: Sequestrene 138Fe safening of HPPD-inhibitors, injury 6 days after treatment; type: in vivo, soybean; conditions: 6 days after treatment (maximum injury), mesotrione 420, bicyclopyrone 200, isoxaflutole 280 g/ha
Experimental: Effect of Sequestrene® 138Fe on Various HPPD-inhibitors in SYHT04R Soybeans. Maximum Injury Assessed 6 Days after Treatment
A greenhouse experiment is conducted to determine if Sequestrene® 138Fe was effective in safening various other HPPD herbicide-tolerant soybean events, such as SYHT04R.
SYHT04R soybean plants are grown in 4×4-inch pots filled with a greenhouse potting mix. When the plants reached the V2-V3 growth stage, they are sprayed with an HPPD inhibitor alone or in combination with Sequestrene® 138Fe at 1120 g/ha (equivalent to 67.2 g iron/ha). […] Observations on percent injury are recorded at 6 and 20 days after treatment. Data presented is from the 6 days after treatment rating representing the maximum injury observed during the experiment.

SYHT04R soybean = assay: Greenhouse: chelated Fe versus chelated Mn, bicyclopyrone maximum injury; type: in vivo; conditions: additive none, maximum injury of 5 and 9 days after treatment
Experimental: Effect of Chelated Fe and Chelated Mn on Safening SYHT04R Soybean from Bicyclopyrone Injury
A greenhouse experiment is conducted to determine if chelating agents containing nutrient elements other than Fe were also effective in safening HPPD herbicide-tolerant soybeans.
SYHT04R soybean plants are grown in 4×4-inch pots filled with a greenhouse potting mix. When the plants reached the V2-V3 growth stage, they are sprayed with an HPPD inhibitor alone or in combination with Sequestrene 138Fe or a solution containing 6% EDTA-chelated Mn. […] Observations on percent injury were recorded 5, and 9 days after treatment. Data presented are maximum injury observed during the experiment.

[8] = Sequestrene 138Fe 140 g/ha tank mix
[9] = Sequestrene 138Fe 280 g/ha tank mix
[10] = Sequestrene 138Fe 560 g/ha tank mix
[11] = Sequestrene 138Fe 1120 g/ha tank mix
[12] = Sequestrene 138Fe 2240 g/ha tank mix
[13] = Sequestrene 138Fe 0 g/ha, g ai/ha: mesotrione 26, isoxaflutole 26, bicyclopyrone 50, tembotrione 46, pyrasulfatole 22, topramezone 18
[14] = Sequestrene 138Fe 280 g/ha tank mix, g ai/ha: bicyclopyrone 50, tembotrione 46, pyrasulfatole 22, topramezone 18
[15] = Sequestrene 138Fe 1000 g/ha, g ai/ha: mesotrione 200, bicyclopyrone, pyrasulfatole 100, topramazone 50
[16] = Sequestrene 138Fe 1000 g/ha, g ai/ha: mesotrione 800, bicyclopyrone, pyrasulfatole 400, topramazone 200
[17] = no Sequestrene 138Fe, g ai/ha: mesotrione 200, bicyclopyrone, pyrasulfatole 100, topramazone 50
[18] = no Sequestrene 138Fe, g ai/ha: mesotrione 800, bicyclopyrone, pyrasulfatole 400, topramazone 200
[19] = Sequestrene 138Fe 140 g/ha tank mix, mesotrione 26, isoxaflutole 26 g ai/ha

O=S(=O)([O-])[O-].[Fe+2] [Ferrous Sulfate (Fe2SO4), iron (II) sulphate (ferrous sulphate)]
safening SYHT0H2 soybeans from mesotrione injury (SYHT0H2 soybeans [1]): effective

bicyclopyrone
% Injury (SYHT0H2 soybeans [2]; Sequestrene 138Fe 0 g/ha): 23%
% Injury (SYHT0H2 soybeans [2]; [8]): 12%
% Injury (SYHT0H2 soybeans [2]; [9]): 10%
% Injury (SYHT0H2 soybeans [2]; [10]): 1%
% Injury (SYHT0H2 soybeans [2]; [11]): 0%
% Injury (SYHT0H2 soybeans [2]; [12]): 0%
% Maximum Injury (SYHT0H2 soybeans [3]; Sequestrene 138Fe 2240 g/ha applied 1 day before herbicide (Treatment 3, sequential), mesotrione 420, bicyclopyrone 200, tembotrione 368 g ai/ha): 12%
% Maximum Injury (SYHT0H2 soybeans [3]; herbicide alone (Treatment 1), mesotrione 420, bicyclopyrone 200, tembotrione 368 g ai/ha, maximum of 5, 11, 22 days after treatment): 25%
% Maximum Injury (SYHT0H2 soybeans [3]; tank mix with Sequestrene 138Fe 2240 g/ha (Treatment 2, simultaneous), mesotrione 420, bicyclopyrone 200, tembotrione 368 g ai/ha): 3%
% Injury [4, 13]: 100%
% Injury [4, 14]: 100%
% Injury [5, 13]: 90%
% Injury [5, 14]: 96%
Herbicide damage SYHT0H2 [6, 15]: 3
Herbicide damage SYHT0H2 [6, 16]: 25
Herbicide damage SYHT0H2 [6, 17]: 13
Herbicide damage SYHT0H2 [6, 18]: 40
Herbicide damage SYHT04R [7, 15]: 5
Herbicide damage SYHT04R [7, 16]: 30
Herbicide damage SYHT04R [7, 17]: 15
Herbicide damage SYHT04R [7, 18]: 42
% Injury (SYHT04R soybeans; Sequestrene 138Fe 0 g/ha): 29%
% Injury (SYHT04R soybeans; Sequestrene 138Fe 1120 g/ha): 7%
% Injury (SYHT04R soybean): 29%

Cc1nn(C)c(O)c1C(=O)c1ccc(C(F)(F)F)cc1S(C)(=O)=O [Pyrasulfatole, pyrasulfotole]
% Injury [4, 13]: 85%
% Injury [4, 14]: 80%
% Injury [5, 13]: 98%
% Injury [5, 14]: 77%
Herbicide damage SYHT0H2 [6, 15]: 10
Herbicide damage SYHT0H2 [6, 16]: 18
Herbicide damage SYHT0H2 [6, 17]: 10
Herbicide damage SYHT0H2 [6, 18]: 4
Herbicide damage SYHT04R [7, 15]: 0
Herbicide damage SYHT04R [7, 16]: 2
Herbicide damage SYHT04R [7, 17]: 4
Herbicide damage SYHT04R [7, 18]: 12

CS(=O)(=O)c1cc(C(F)(F)F)ccc1C(=O)c1cnoc1C1CC1 [Isoxaflutole, isoxaflutole]
% Injury [4, 13]: 78%
% Injury [4, 19]: 82%
% Injury [5, 13]: 87%
% Injury [5, 19]: 88%

Cc1c(C(=O)c2cnn(C)c2O)ccc(S(C)(=O)=O)c1C1=NOCC1 [Topramezone, topramezone]
% Injury (SYHT0H2 soybeans [2]; Sequestrene 138Fe 0 g/ha): 8%
% Injury (SYHT0H2 soybeans [2]; [8]): 0%
% Injury (SYHT0H2 soybeans [2]; [9]): 0%
% Injury (SYHT0H2 soybeans [2]; [10]): 0%
% Injury (SYHT0H2 soybeans [2]; [11]): 0%
% Injury (SYHT0H2 soybeans [2]; [12]): 0%
% Injury [4, 13]: 96%
% Injury [4, 14]: 93%
% Injury [5, 13]: 100%
% Injury [5, 14]: 99%
Herbicide damage SYHT0H2 [6, 15]: 5
Herbicide damage SYHT0H2 [6, 16]: 0
Herbicide damage SYHT0H2 [6, 17]: 8
Herbicide damage SYHT0H2 [6, 18]: 23
Herbicide damage SYHT04R [7, 15]: 2
Herbicide damage SYHT04R [7, 16]: 3
Herbicide damage SYHT04R [7, 17]: 5
Herbicide damage SYHT04R [7, 18]: 17

iron DTPA [Sequestrene 330-Fe]
safening SYHT0H2 soybeans from mesotrione injury (SYHT0H2 soybeans [1]): effective

CS(=O)(=O)c1ccc(C(=O)C2C(=O)CCCC2=O)c(Cl)c1COCC(F)(F)F [Tembotrione, tembotrione]
% Maximum Injury (SYHT0H2 soybeans [3]; in vivo): 31%
% Injury [4, 13]: 98%
% Injury [4, 14]: 99%
% Injury [5, 13]: 99%
% Injury [5, 14]: 99%
